pKi: −log10 of the molar value. Like-named read-outs stand apart in the source and are kept apart here.
Assays:
[1] = target: T1, CaMKII/GluN2B co-localization in HEK293 cells (Homo sapiens, UniProt Q9UQM7); assay: Ionomycin-induced co-localization of GFP-CaMKII and mCherry-2BC in HEK293 cells; assay type: cell-based; details: 10 μM inhibitor
T1 construct: expressed in transfected cells; host or cells: HEK293 cells
Protocol: (§1) In a series of exemplary methods, an in vitro kinase assay was used where purified CaMKIIα is incubated at 30° C. with GST-GluA1 alongside ATP. CaMKIIα normally phosphorylates S831 on the GluA1 subunit and this phosphorylation can be measured as a readout of CaMKIIα enzymatic activity (see e.g., FIG. 8B). […] In another exemplary method, binding of purified CaMKIIα to immobilized GST-GluN2B-c was induced by Ca^2+/CaM in the presence of a vehicle (none), 4 mM ADP or with […] AS105. […] At the same time, two exemplary methods were performed to observe ionomycin or chemical LTP (cLTP) induced co-localization of CaMKII and GluN2B either in HEK293 cells co-expressing GFP-CaMKII and mCherry-2BC or dissociated rat hippocampal cultures expressing GFP-CaMKII and mCh-PSD95 intrabody. HEK293 cells, incubating with vehicle or 10 μM AS105, were subjected to ionomycin. Hippocampal cultures, also incubating with either vehicle or 10 μM AS105, were treated with a chemical LTP (cLTP) stimulus (e.g., 100 μM glutamate, 10 μM glycine for 45 seconds). Confocal microscopy images were taken before and after each stimulus.

purified CaMKIIα = purified CaMKIIα (Homo sapiens, UniProt Q9UQM7); assay: In vitro kinase reactions with purified CaMKIIα (GluA1 S831, T286, GluN2B S1303 phosphorylation); assay type: biochemical; parameters: made in house; host or cells: baculovirus/Sf9 (CaMKIIα); BL21 bacteria (CaM); details: for pKi: 1 mM ATP, 30° C., AS283 0.41-10 μM, Cheng-Prusoff with Km ATP 33.3 μM
Protocol: as §1
Therefore, in another exemplary method, the ability of AS283 to selective inhibit CAMKII enzymatic activity without interfering with its binding to GluN2B was tested. In a first method, in vitro kinase reactions were performed at 30° C. in 1 mM ATP measuring purified CaMKIIα phosphorylation of GST-GluA1 S831 with varying concentrations of AS283 (0.41-10 μM).
One possible mechanism by which AS283 could enhance GluN2B binding more than ATP is by suppressing CaMKII-mediated phosphorylation of GluN2B at S1303, as this phosphorylation within the CaMKII binding site on GluN2B reduces CaMKII binding.
(§2) In vitro phosphorylation assays. CaMKII-mediated phosphorylation of GluA1 S831 was measured by in vitro kinase reaction with purified GST-GluA1 c-terminal tail. Reactions contained 40 nM CaMKII (or water for negative controls), 1 μM GST-GluA1, 50 mM PIPES pH 7.1, 2 mM CaCl2), 10 mM MgCl2, 1 μM calmodulin, 1-4 mM ATP, and 1 PM of okadaic acid. Reactions were done at 30° C. for 20 s; reactions were stopped by adding SDS-loading buffer and incubation in a boiling water bath for 5 min. GST, phospho-S831, CaMKII, phospho-T286, or phospho-S1303 were detected in the samples by immunoblot analysis.
Km and Ki determination. The inhibition constant Ki was calculated using the Cheng-Prusoff equation for competitive inhibition: Ki=IC50/(1+[ATP]/Km).

[2] = system: LTP in CaMKII T286A slices; assay: LTP induction in hippocampal slices from CaMKII T286A mutant mice; assay type: cell-based, mouse; details: 10 μM inhibitor
CaMKII F89G = CaMKII F89G (Homo sapiens, UniProt Q9UQM7, F89G); assay: In vitro kinase assay with CaMKII F89G mutant; assay type: biochemical; details: 10 μM NM-PP1
Protocol: (§3) This conclusion also predicts that the LTP stimulus-induced movement of CaMKII to excitatory synapses should be (i) impaired in the CaMKII F89G mutant; but (ii) normalized by pharmacogenetic rescue with NM-PP1. Indeed, both predictions were observed experimentally (FIGS. 4D-4E).
as §2

[3] = target: T2, CaMKII F89G binding to GluN2B in HEK cells (Homo sapiens, UniProt Q9UQM7, F89G); assay: Ionomycin-induced co-localization of GFP-CaMKII F89G and mCh-GluN2B in HEK cells; assay type: cell-based; details: 10 μM NM-PP1
T2 construct: expressed in transfected cells; host or cells: HEK cells
Protocol: as §3
Live imaging of HEK cells. HEK cells were grown and transfected with expression vectors for GFP-CaMKII mutants and pDisplay-mCh-GluN2B-c tail (2BC) as previously described; the GluN2B construct used included a S1303A mutation to avoid potential complications by differential phosphorylation of this regulatory site in the different conditions with or without kinase inhibitors. GFP-CaMKII colocalization with GluN2B in response to a Ca^2+ stimulus induced by 10 μM ionomycin was monitored for 5-10 min at 32° C. in imaging buffer (0.87× Hanks Balanced Salt Solution, 25 mM Hepes pH 7.4, 2 mM glucose, 2 mM CaCl2), 1 mM MgCl2) by fluorescence microscopy. Images were acquired on a Zeiss Axiovert 200M equipped with a climate control chamber, using SlideBook software (Intelligent Imaging Innovations). Colocalization analysis was performed by calculating the Pearson's correlation (correlation index) of pDisplay-mCh-2BC and GFP-CaMKII within the cytoplasm of HEK cells after background subtraction.

T1 sequence (Q9UQM7 whole entry): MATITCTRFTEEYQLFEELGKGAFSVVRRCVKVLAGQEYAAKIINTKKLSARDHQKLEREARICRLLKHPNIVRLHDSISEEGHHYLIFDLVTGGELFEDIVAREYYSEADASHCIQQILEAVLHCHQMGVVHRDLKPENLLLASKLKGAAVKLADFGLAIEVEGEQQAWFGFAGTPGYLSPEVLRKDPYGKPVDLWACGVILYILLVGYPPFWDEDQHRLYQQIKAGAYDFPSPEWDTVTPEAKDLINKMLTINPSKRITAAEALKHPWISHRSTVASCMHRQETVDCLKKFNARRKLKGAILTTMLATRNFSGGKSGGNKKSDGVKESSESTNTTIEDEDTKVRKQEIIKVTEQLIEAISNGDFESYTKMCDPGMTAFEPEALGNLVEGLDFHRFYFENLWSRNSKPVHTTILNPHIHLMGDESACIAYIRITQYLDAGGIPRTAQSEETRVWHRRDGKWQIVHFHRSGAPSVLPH
T1 sequence (Q13224 836-1484 S1303A partner limits assumed): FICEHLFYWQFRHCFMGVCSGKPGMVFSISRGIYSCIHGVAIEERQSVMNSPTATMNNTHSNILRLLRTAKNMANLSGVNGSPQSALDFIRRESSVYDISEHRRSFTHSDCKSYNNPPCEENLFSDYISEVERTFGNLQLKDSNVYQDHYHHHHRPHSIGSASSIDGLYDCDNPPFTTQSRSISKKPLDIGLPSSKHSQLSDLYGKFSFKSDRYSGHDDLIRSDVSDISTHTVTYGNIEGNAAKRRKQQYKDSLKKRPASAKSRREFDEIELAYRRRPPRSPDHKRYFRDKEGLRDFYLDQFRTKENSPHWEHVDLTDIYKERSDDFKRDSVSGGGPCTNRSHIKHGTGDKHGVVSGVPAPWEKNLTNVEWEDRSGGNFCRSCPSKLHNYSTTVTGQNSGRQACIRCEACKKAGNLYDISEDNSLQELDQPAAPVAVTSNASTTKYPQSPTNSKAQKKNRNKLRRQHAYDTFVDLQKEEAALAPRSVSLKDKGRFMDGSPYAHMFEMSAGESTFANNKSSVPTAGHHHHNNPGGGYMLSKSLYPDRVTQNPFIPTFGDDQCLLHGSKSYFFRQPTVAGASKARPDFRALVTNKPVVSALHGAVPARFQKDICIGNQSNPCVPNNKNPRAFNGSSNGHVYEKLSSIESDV
T2 sequence (Q9UQM7 whole entry F89G): as the sequence (Q9UQM7 whole entry) above, with F89G counted along it
T2 sequence (Q13224 836-1484 S1303A partner limits assumed): as the sequence (Q13224 836-1484 S1303A partner limits assumed) above

Compound | ionomycin-induced CaMKII/GluN2B co-localization in HEK293 cells [1] | pKi (purified CaMKIIα; read-out: apparent Ki, autophosphorylation of T286 (pT286)) | pKi (purified CaMKIIα; read-out: apparent Ki, phosphorylation of GluA1 S831 (pS831)) | CaMKII-mediated S1303 phosphorylation of wild type GluN2B C-terminus (purified CaMKIIα; purified CaMKII and GST-2BC) | LTP induction in slices from T286A mutant mice [2] | residual enzymatic activity of CaMKII F89G (CaMKII F89G) | binding of CaMKII F89G to GluN2B in HEK cells after ionomycin [3] | effect on pT286 of CaMKII wildtype (purified CaMKIIα; in vitro kinase reaction in ATP)
NCCNc1cccc(-c2ccnc3[nH]c4ccccc4c23)c1 [AS283] | failed to inhibit CaMKII binding to GluN2B | 7.15 | 7.77 | inhibited the CaMKII-mediated S1303 phosphorylation | enabled LTP |  |  | 
CC(C)(C)n1nc(Cc2cccc3ccccc23)c2c(N)ncnc21 [NM-PP1] |  |  |  |  |  | still further reduced | fully enabled binding | did not affect pT286

From patent US20260263429A1, “INHIBITORS OF CA 2+/CALMODULIN-DEPENDENT PROTEIN KINASE II (CAMKII) THAT DO NOT INHIBIT LONG-TERM POTENTIATION (LTP) INDUCTION AND THERAPEUTIC USES THEREOF” (The Regents of the University of Colorado, A Body Corporate, priority 2023, published 2026)
